pIC50: −log10 of the molar value. Activity calls are given as the source filed them. The rule behind the calls is not given here.
Experiments:
[1] = Cmax in Sprague-Dawley rat at 15 mg/kg, po measured for 24 hrs by LC-MS/MS analysis; format: ADME, organism-based; settings: in vivo
[2] = Cmax in Sprague-Dawley rat at 1 mg/kg, iv measured for 24 hrs by LC-MS/MS analysis; format: ADME, organism-based; settings: in vivo
[3] = Half life in female Sprague-Dawley rat at 15 mg/kg, po administered via gavage and measured on day 1; format: ADME, organism-based; settings: in vivo, time 1 day
[4] = Cmax in female Sprague-Dawley rat at 30 mg/kg, po administered via gavage and measured on day 1; format: ADME, organism-based; settings: in vivo, time 1 day
[5] = Half life in female Sprague-Dawley rat at 7.5 mg/kg, po administered via gavage and measured on day 1; format: ADME, organism-based; settings: in vivo, time 1 day
[6] = target: Cyclin-dependent kinase 13/Cyclin-K (Homo sapiens) (UniProt Q14004+O75909); assay: Inhibition of human recombinant N-terminal GST-tagged CDK13/N-terminal FLAG and C-terminal His-tagged Cyclin K expressed in HEP Sf9 cells using ATP as substrate at 2 uM measured after 60 mins by ADP-Glo reagent based luminescence assay
SUM149PT [7] = assay: Antiproliferative activity against human SUM149PT cells assessed as inhibition of cell growth incubated for 7 days by CellTiter-Glo reagent based luminescence analysis; format: functional; settings: 168 h
[8] = Half life in female Sprague-Dawley rat at 15 mg/kg, po administered once daily via gavage for 28 days; format: ADME, organism-based; settings: in vivo, time 28 day
[9] = Cmax in Sprague-Dawley rat at 150 mg/kg, po measured for 24 hrs by LC-MS/MS analysis; format: ADME, organism-based; settings: in vivo
[10] = Toxicity against female Sprague-Dawley rat assessed as effect on creatinine level in blood at 7.5 to 30 mg/kg, po administered once daily via gavage for 28 days and measured on day 29; format: organism-based; settings: in vivo, 696 h, dose 7.5-30 mg/kg, time 29 day
[11] = Toxicity against female Sprague-Dawley rat assessed as effect on blood urea nitrogen level at 7.5 to 30 mg/kg, po administered once daily via gavage for 28 days and measured on day 29; format: organism-based; settings: in vivo, 696 h, dose 7.5-30 mg/kg, time 29 day
[12] = target: Cyclin-dependent kinase 12/13 (Homo sapiens) (UniProt Q14004+Q9NYV4); assay: Inhibition of CDK12/13 in human SUM149PT cells assessed as reduction in FANCI gene expression at 500 nM incubated for 8 to 24 hrs by qPCR analysis; format: cell-based; settings: time lower 8.0 hrs, time upper […]
Mus musculus = assay: In vivo inhibition of CDK12/13 in Balb/c mouse xenografted with human SUM149PT cells assessed as reduction in FANCI gene expression at 15 to 30 mg/kg, po administered once daily via gavage and measured at 4 hrs post-last drug dosage by qPCR analysis; format: functional, organism-based; settings: dose 15-30 mg/kg
SUM149PT [13] = assay: Antitumor activity against human SUM149PT cells xenografted in Balb/c mouse assessed as inhibition of tumor growth at 60 mg/kg, po administered once daily via gavage and measured on day 20; format: functional; settings: 480 h, time 20 day, read-out: TGI

Cyclin-dependent kinase 13/Cyclin-K (Homo sapiens), sequence (O75909 whole entry, looked up): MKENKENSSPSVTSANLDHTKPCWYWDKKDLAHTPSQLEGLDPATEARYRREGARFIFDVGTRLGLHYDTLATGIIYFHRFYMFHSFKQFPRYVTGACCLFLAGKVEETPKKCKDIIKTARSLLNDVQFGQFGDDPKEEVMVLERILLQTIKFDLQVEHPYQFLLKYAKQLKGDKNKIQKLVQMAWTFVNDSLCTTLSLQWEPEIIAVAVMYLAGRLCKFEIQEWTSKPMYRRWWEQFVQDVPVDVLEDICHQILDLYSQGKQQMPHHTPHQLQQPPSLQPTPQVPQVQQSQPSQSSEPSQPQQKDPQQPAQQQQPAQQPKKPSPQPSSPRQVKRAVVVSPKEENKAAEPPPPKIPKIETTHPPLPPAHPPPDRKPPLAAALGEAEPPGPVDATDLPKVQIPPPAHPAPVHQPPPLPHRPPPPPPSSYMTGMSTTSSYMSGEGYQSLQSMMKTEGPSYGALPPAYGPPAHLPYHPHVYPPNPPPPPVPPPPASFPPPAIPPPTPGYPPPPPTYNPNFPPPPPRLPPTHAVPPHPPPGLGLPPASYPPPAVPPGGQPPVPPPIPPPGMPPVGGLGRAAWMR
Cyclin-dependent kinase 13/Cyclin-K (Homo sapiens), sequence (Q14004 whole entry, looked up): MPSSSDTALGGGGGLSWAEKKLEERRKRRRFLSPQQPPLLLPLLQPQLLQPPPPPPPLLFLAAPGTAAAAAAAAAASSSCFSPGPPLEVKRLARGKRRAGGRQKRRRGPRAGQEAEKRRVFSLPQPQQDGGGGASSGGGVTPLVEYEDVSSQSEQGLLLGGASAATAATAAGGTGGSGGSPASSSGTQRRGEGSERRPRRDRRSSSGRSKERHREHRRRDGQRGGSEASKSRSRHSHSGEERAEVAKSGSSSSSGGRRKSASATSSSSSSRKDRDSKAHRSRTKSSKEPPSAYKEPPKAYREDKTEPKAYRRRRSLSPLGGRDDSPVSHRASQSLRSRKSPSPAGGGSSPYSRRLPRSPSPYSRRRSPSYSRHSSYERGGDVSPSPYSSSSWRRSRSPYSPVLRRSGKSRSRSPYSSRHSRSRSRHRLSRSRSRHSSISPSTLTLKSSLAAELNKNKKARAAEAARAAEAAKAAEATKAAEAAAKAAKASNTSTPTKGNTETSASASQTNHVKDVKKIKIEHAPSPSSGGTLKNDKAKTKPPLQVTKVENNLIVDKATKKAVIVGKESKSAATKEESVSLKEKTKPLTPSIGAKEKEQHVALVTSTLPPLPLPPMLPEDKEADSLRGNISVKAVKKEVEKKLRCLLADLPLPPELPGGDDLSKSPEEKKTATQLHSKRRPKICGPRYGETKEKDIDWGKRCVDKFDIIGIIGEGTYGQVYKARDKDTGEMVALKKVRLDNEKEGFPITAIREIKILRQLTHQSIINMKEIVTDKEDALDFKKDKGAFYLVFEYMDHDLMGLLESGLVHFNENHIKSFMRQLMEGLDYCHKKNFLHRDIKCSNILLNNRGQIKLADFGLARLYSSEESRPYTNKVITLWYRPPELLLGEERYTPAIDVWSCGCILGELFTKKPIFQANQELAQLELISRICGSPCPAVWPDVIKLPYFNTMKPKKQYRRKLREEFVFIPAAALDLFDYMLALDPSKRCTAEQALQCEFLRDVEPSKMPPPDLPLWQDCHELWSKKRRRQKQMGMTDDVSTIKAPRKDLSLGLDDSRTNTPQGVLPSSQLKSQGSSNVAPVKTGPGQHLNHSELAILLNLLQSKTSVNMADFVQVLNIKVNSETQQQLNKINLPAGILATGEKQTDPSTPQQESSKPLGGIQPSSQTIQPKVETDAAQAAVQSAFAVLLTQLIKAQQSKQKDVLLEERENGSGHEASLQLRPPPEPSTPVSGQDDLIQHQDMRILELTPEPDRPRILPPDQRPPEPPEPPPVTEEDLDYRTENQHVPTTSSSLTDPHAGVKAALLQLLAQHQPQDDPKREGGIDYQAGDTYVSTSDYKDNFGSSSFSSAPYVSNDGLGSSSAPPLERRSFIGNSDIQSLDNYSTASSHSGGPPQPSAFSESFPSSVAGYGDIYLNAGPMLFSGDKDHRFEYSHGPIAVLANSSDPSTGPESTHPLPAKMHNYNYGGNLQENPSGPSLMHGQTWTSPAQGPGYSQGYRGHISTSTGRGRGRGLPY

SMILES: C=CC(=O)N1CCc2c(ncnc2N2CC[C@@H](Nc3ncc(Cl)c(OC)n3)C2)C1
- Cmax [1]: 797 ng/mL
- Cmax [2]: 830 ng/mL
- half-life [3]: 3.7 h
- Cmax [4]: 2200 ng/mL
- half-life [5]: 2 h
- inhibition [6]: 83%
- pIC50 (SUM149PT [7]): 6.80
- half-life [8]: 2.3 h
- Cmax [9]: 3760 ng/mL
- Activity [10]: Non-toxic
- Activity [11]: Non-toxic
- inhibition [12]: Active
- inhibition (Mus musculus): Active
- inhibition in vivo at 60 mg/kg (SUM149PT [13]): 114%

— ChEMBL document CHEMBL6153137, “Design, Synthesis, and Biological Evaluation of Novel Orally Available Covalent CDK12/13 Dual Inhibitors for the Treatment of Tumors” (J Med Chem, 2025)
